We go through 7 compounds from US7365064B2, “Benzoxazine and benzothiazine derivatives and pharmaceutical compositions containing them” (Dr. Reddy's Laboratories Limited, priority 2001, dated 2008).

One assay addresses T1, hPPARγ (Homo sapiens, UniProt P37231).
T1 construct: expressed in transfected cells; host or cells: HEK-293
T1 sequence (P37231 238-503 limits assumed): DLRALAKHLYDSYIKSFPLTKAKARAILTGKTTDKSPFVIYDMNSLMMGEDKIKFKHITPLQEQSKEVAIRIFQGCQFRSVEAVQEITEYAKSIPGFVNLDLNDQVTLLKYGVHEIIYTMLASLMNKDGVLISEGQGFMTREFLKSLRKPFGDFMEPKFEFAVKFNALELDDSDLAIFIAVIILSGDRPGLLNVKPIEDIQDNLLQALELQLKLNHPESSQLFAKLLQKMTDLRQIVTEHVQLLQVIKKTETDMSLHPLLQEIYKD
Put plainly: Determination of hPPARγ activity (GAL4 fusion luciferase reporter in HEK-293 cells). The format is cell-based. The settings on record: compound concentration 1 μM. The procedure: b) Determination of hPPARγ Activity
Ligand binding domain of hPPARγ is fused to DNA binding domain of Yeast transcription factor GAL4 in eucaryotic expression vector. Using lipofectamine (Gibco BRL, USA) as transfecting reagent HEK-293 cells are transfected with this plasmid and a reporter plasmid harboring the luciferase gene driven by a GAL4 specific promoter. Compound can be added at 1 μM concentration after 48 hrs of transfection and incubated overnight Luciferase activity as a function of drug binding/activation capacity of PPARγ1 will be measured using Packard Luclite kit (Packard, USA) in Packard Top Cout (Ivan Sadowski, Brendan Bell, Peter Broag and Melvyn Hollis. Gene. 1992. 118: 137-141; Guide to Eukaryotic Transfections with Cationic Lipid Reagents. Life Technologies, GIBCO BRL, USA).

In another assay the test system is Swiss albino mice. Put plainly: Plasma triglyceride and total cholesterol lowering activity in Swiss albino mice and guinea pigs. The class given is in vivo. The settings on record: 10 mg/kg orally for 6 days; species not named. The procedure: c) Plasma Triglyceride and Total Cholesterol Lowering Activity in Swiss Albino Mice and Gunie Pigs
Male Swiss albino mice (SAM) and male Guinea pigs were obtained from NIN and housed in DRF animal house. All these animals are maintained under 12 hour light and dark cycle at 25±1° C. Animals were given standard laboratory chow (NIN, Hyderabad, India) and water, ad libitum. SAM of 20-25 g body weight range and Guinea pigs of 500-760 g body weight range are used (Oliver, P., Plancke, M. O., Marzin, D., Clavey, V., Sauzieres, J and Fruchatt, J. C. Effects of fenofibrate, gemfibrozil and nicotinic acid on plasma lipoprotein levels in normal and hyperlipidemic mice. Atherosclerosis. 1988. 70 : 107-114).
The test compounds were administered orally to Swiss albino mice at 0.3 to 30 mg/kg/day dose for 6 days. Control mice are treated with vehicle (0.25% Carboxymethylcellulose; dose 10 ml/kg). The test compounds are administered orally to Guinea pigs at 0.3 to 30 mg/kg/day dose for 6 days. Control animals are treated with vehicle (0.25% Carboxymethylcellulose; dose 5 ml/kg).
The blood samples were collected in fed state 1 hour after drug administration on 0 and 6 day of treatment The blood was collected from the retro-orbital sinus through heparinised capillary in EDTA containing tubes. After centrifugation, plasma sample was separated for triglyceride and total cholesterol (Wieland, O. Methods of Enzymatic analysis. Bergermeyer, H. O., Ed., 1963. 211-214; Trinder, P. Ann. Clin. Biochem. 1969. 6: 24-27). Measurement of plasma triglyceride were done using commercial kits (Dr. Reddy's Diagnostic Division, Hyderabad, India).
(§1) 1. Percent reduction in Blood sugar/triglycerides/total cholesterol will be calculated according to the formula:
(§2) [formula] • OC=Zero day control group value • OT=Zero day treated group value • TC=Test day control group value • TT=Test day treated group value

A further assay has as its target T2, hPPARα (Homo sapiens, UniProt Q07869).
T2 construct: expressed in transfected cells; host or cells: HEK-293
T2 sequence (Q07869 239-466 limits assumed): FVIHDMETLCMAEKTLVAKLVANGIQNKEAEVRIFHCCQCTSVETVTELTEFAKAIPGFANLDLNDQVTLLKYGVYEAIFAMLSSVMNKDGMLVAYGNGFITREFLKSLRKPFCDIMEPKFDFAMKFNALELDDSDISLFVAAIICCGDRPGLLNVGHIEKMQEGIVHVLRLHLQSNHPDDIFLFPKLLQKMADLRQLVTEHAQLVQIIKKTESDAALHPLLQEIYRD
Put plainly: Determination of hPPARα activity (GAL4 fusion luciferase reporter in HEK-293 cells). The class given is cell-based. The following applies: compound concentration 50 μM. The method, then: a) Determination of hPPARα Activity
Ligand binding domain of hPPARα was fused to DNA binding domain of Yeast transcription factor Gal 4 in eucaryotic expression vector. Using superfect (Qiagen, Germany) as transfecting reagent HEK-293 cells are transfected with this plasmid and a reporter plasmid harboring the luciferace gene driven by a GAL4 specific promoter. Compound can be added at different concentrations after 42 hrs of transfection and incubated overnight. Luiciferase activity as a function of compound binding/activation capacity of PPARα will be measured using Packard Luclite kit (Packard, USA) in Top Count (Ivan Sadowsi, Brendan Bell, Peter Broag and Melvyn Hollis. Gene. 1992. 118: 137-141; Superfect Transfetion Reagent Handbook February 1997. Qiagen, Germany.
A general note: Reporter assays use an easily measured gene product as a stand-in for the process of interest.

The subject of another assay is C57BL/KsJ-db/db mice. The experiment in a line: Blood sugar and triglyceride lowering in db/db mice. The format is in vivo. The following applies: 3 mg/kg oral gavage daily for 6 days. The source says: Mutation in colonies of laboratory animals and different sensitivities to dietary regimens have made the development of animal models with non-insulin dependent diabetes and hyperlipidemia associated with obesity and insulin resistance possible. Genetic models such as db/db and ob/ob (Diabetes, (1982) 31(1): 1-6) mice and zucker fa/fa rats have been developed by the various laboratories for understanding the pathophysiology of disease and testing the efficacy of new antidiabetic compounds (Diabetes, (1983) 32: 830-838; Annu. Rep. Sankyo Res. Lab. (1994). 46: 1-57). The homozygous animals, C57 BL/KsJ-db/db mice developed by Jackson Laboratory, US, are obese, hyperglycemic, hyperinsulinemic and insulin resistant (J. Clin. Invest., (1990) 85 : 962-967), whereas heterozygous are lean and normoglycemic. In db/db model, mouse progressively develops insulinopenia with age, a feature commonly observed in late stages of human type II diabetes when blood sugar levels are insufficiently controlled. The state of pancreas and its course vary according to the models. Since this model resembles that of type II diabetes mellitus, the compounds of the present invention will be tested for blood sugar and triglycerides lowering activities.
Male C57BL/KsJ-db/db mice of 8 to 14 weeks age, having body weight range of 35 to 60 grams, bred at Dr. Reddy's Research Foundation (DRF) animal house, were used in the experiment. The mice are provided with standard feed (National Institute of Nutrition (NIN), Hyderabad, India) and acidified water, ad libitum. The animals having more than 350 mg/dl blood sugar will be used for testing. The number of animals in each group was 4.
Test compounds are suspended on 0.25% carboxymethyl cellulose and administered to test group at a dose of 0.1 mg to 30 mg/kg through oral gavage daily for 6 days. The control group receives vehicle (dose 10 ml/kg). On 6th day the blood samples will be collected one hour after administration of test compounds/vehicle for assessing the biological activity.
The random blood sugar and triglyceride levels can be measured by collecting blood (100 μl) through orbital sinus, using heparinised capillary in tubes containing EDTA which was centrifuged to obtain plasma. The plasma glucose and triglyceride levels can be measured spectrometrically, by glucose oxidase and glycerol-3-PO4 oxidase/peroxidse enzyme (Dr. Reddy's Lab. Diagnostic Division Kits, Hyderabad, India) methods respectively.
The blood sugar and triglycerides lowering activities of the test compound are calculated according to the formula.
1. Percent reduction in Blood sugar/triglycerides/total cholesterol will be calculated according to the formula: […]

Assay [1] relates to hypercholesterolemic Sprague Dawley rats. The experiment in a line: Plasma triglyceride and cholesterol lowering activity in hypercholesterolemic rat models. The format is in vivo. The settings on record: 10 mg/kg orally for 3 days; for HDL (%) ↑: increase; for Total Cholesterol (%) ↓ / Triglyceride (%) ↓ / LDL (%) ↓ / VLDL (%) ↓: reduction; for LDL (%) ↓: LDL calculated from total cholesterol; for LDL (%) ↓ / VLDL (%) ↓: HDL and triglyceride; for VLDL (%) ↓: VLDL calculated from total cholesterol. The procedure: b) Plasma Triglyceride and Cholesterol Lowering Activity in Hypercholesterolemic Rat Models
Male Sprague Dawley rats (NIN stock) were bred in DRF animal house. Animals were maintained under 12 hour light and dark cycle at 25±1° C. Rats of 180-200 gram body weight range were used for the experiment. Animals are made hypercholesterolemic by feeding 2% cholesterol and 1% sodium cholate mixed with standard laboratory chow [National Institute of Nutrition (NIN), Hyderabad, India] […] for 6 days. Throughout the experimental period the animals were maintained on the same diet (Petit, D., Bonnefis, M. T., Rey, C and Infante, R. Effects of ciprofibrate on liver lipids and lipoprotein synthesis in normo- and hyperlipidemic rats. Atherosclerosis. 1988. 74 : 215-225).
The test compounds can be administered orally at a dose 0.1 to 30 mg/kg/day for 3 days. Control group was treated with vehicle alone (0.25% Carboxymethylcellulose; dose 10 ml/kg).
The blood samples were collected in fed state 1 hour after drug administration on 0 and 3 day of compound treatment. The blood was collected from the retro-orbital sinus through heparinsed capillary in EDTA containing tubes. After centrifugation, plasma sample was separated for total cholesterol, HDL and triglyceride estimations. Measurement of plasma, triglyceride, total cholesterol and HDL are were done using commercial kits (Dr. Reddy's Laboratory, Diagnostic Division, India). LDL and VLDL cholesterol were calculated from the data obtained for total cholesterol, HDL and triglyceride. The reduction of various parameters examined are calculated according to the formula.
as §1, §2
2. LDL and VLDL cholesterol levels will be calculated according to the formula:
[formula] VLDL cholesterol in mg/dl=[Total cholesterol−HDL cholesterol−LDL cholesterol]mg/dl.

Structures can show the parent of a compound that is named as a salt.

In the case of `CCOC(Cc1ccc(NCCCN2CCOc3ccccc32)cc1)C(=O)O` (stereo not shown) [Example 3, 3-[4-{3-(3,4-Dihydro-2H-benzo[b][1,4]oxazin-4-yl)propylamino}phenyl]-2-ethoxypropanoic acid arginine salt], the PPARγ on hPPARγ stood at 3.0. Also, in the assay on Swiss albino mice, the “Triglyceride Lowering (%)” value worked out at 70%. Moreover, the PPARα on hPPARα came to 4.7. Moreover, in the assay on C57BL/KsJ-db/db mice, the “Reduction in Blood Glucose Level (%)” value is 33% and the “Triglyceride Lowering (%)” value is recorded as 29%. In assay [1], the “HDL (%) ↑” value came to 254%, the “Total Cholesterol (%) ↓” value came to 69%, the “Triglyceride (%) ↓” value is 77% and the “LDL (%) ↓” value was 80%. In addition, the “VLDL (%) ↓” value in assay [1] is on record as 77%.
For `CCCCCCCN(CCN1C(=O)COc2ccccc21)c1ccc(CC(OCC)C(=O)O)cc1` (stereo not shown) [Example 6, 3-[4-N-Heptyl-N-{2-(3-oxo-3,4-dihydro-2H-benzo[b][1,4]oxazin-4-yl)ethylamino}phenyl]-2-ethoxypropanoic acid arginine salt], the “Triglyceride Lowering (%)” value in the assay on Swiss albino mice is 27%.
The compound `CCCCCCCN(CC(=O)N1CCOc2ccccc21)Cc1ccc(CC(OCC)C(=O)O)cc1` (stereo not shown) [Example 9, 2-Ethoxy-3-[4-{N-heptyl-N-(2-(3,4-dihydro-2H-benzo[b]oxazin-4-yl)-2-oxoethyl)aminomethyl}phenyl]propanoic acid arginine salt] displayed a PPARγ at hPPARγ of 6.2. The PPARα on hPPARα came to 4.6.
For the compound `CCOC(Cc1cccc(NCCCN2CCOc3ccccc32)c1)C(=O)O` (stereo not shown) [Example 15, 3-[3-{3-(3,4-Dihydro-2H-benzo[b][1,4]oxazin-4-yl)propylamino}phenyl]-2-ethoxypropanoic acid arginine salt], the “Triglyceride Lowering (%)” value in the assay with Swiss albino mice was 43%.
In the case of `CCOC(Cc1ccc(NCCCN2CCOc3cc(F)ccc32)cc1)C(=O)O` (stereo not shown) [Example 18, 3-[4-{3-(7-Fluoro-3,4-dihydro-2H-benzo[b][1,4]oxazin-4-yl)propylamino}phenyl]-2-ethoxypropanoic acid arginine salt], at hPPARγ, the PPARγ is 1.2. Moreover, the “Triglyceride Lowering (%)” value in the assay with Swiss albino mice is recorded as 61%. Moreover, on hPPARα, the PPARα is listed as 4.4. Besides, in the assay on C57BL/KsJ-db/db mice, the “Reduction in Blood Glucose Level (%)” value is reported as 16% and the “Triglyceride Lowering (%)” value is 35%. In addition, in assay [1], the “HDL (%) ↑” value is on record as 260%, the “Total Cholesterol (%) ↓” value was 64%, the “Triglyceride (%) ↓” value amounted to 77% and the “LDL (%) ↓” value is given as 74%. In addition, in assay [1], the “VLDL (%) ↓” value was 77%.
Regarding `CCOC(Cc1ccc(NCc2ccc(OCCCN3CCOc4ccccc43)cc2)cc1)C(=O)O` (stereo not shown) [Example 23, 2-Ethoxy-3-[4-{4-(3-(3,4-dihydro-2H-benzo[b][1,4]oxazin-4-yl)propyloxy)benzyl}aminophehyl]propanoic acid arginine salt], the PPARγ at hPPARγ is on record as 4.4. The same compound had a PPARα on hPPARα of 4.2.
The compound `CCOC(Cc1ccc(NCCCN2CCSc3ccccc32)cc1)C(=O)O` (stereo not shown) [Example 27, 2-Ethoxy-3-[4-{3-3,4-dihydro-2H-benzo[b][1,4]thiazin-4-yl)propylamino}phenyl]propanoic acid arginine salt] yielded a PPARγ at hPPARγ of 3.5. For the same compound, the PPARα on hPPARα is recorded as 4.3.
